For test [1], the system named is HT1080 (human fibrosarcoma). The test is described as follows: SRB Cell Cytotoxicity Assay, HT1080. It is filed as cell-based. The settings on record: HT-1080, HT1080, 72h treatment, read-out: Concentration (µM) of test compounds at which the cell growth is inhibited by 50 %. HT1080. From the text: (§1) SRB Cell Cytotoxicity Assay is an assay based upon the quantitative staining of cellular proteins by sulforhodamine B (SRB). This assay can be used for high-throughput drug screening (Vichai & Kirkitara, Nature Protocol. 2006, 1, 112). Sulforhodamine B is an anionic aminoxanthene dye that forms an electrostatic complex with the basic amino acid residues of proteins under moderately acid conditions, which provides a sensitive linear response.
(§2) To assess a putative antiproliferative activity of the selected compounds, HT1080 (human fibrosarcoma), U87MG (human glioblastoma astrocytoma) and U2OS (human osteosarcoma) cell lines were treated for 72h, in triplicate, with increasing concentrations of heparanase inhibitors. Inhibition of cell proliferation was then measured by the classical colorimetric SRB Cell Cytotoxicity assay. Absorbance was measured by spectrophotometer at a wavelength of 510 nm and cell proliferation was determined as percent with respect to control cells (cells treated with the vehicle alone). EC50 values were then determined by GraphPad Prism.

Test [2] deals with U87MG (human glioblastoma astrocytoma). The test is described as follows: SRB Cell Cytotoxicity Assay, U87MG. It is filed as cell-based. The settings on record: U-87 MG, 72h treatment, read-out: Concentration (µM) of test compounds at which the cell growth is inhibited by 50 %. U87MG.
Text: as §1, §2

Test [3] has as its system U2OS (human osteosarcoma). The test is described as follows: SRB Cell Cytotoxicity Assay, U2OS. It counts as cell-based. As to conditions: 72h treatment, read-out: Concentration (µM) of test compounds at which the cell growth is inhibited by 50 %. U2OS.
Text: as §1, §2

Test [4] relates to HT1080 (human fibrosarcoma). The test is described as follows: Matrigel cell invasion assay, HT1080. It counts as cell-based. The method, then:
(§3) Heparanase inhibitors were then evaluated for their activity on the invasive potential of HT1080 (human fibrosarcoma), U87MG (human glioblastoma astrocytoma) and U2OS (human osteosarcoma) human cell lines, using the Matrigel cell invasion assay which allows to assess the cell invasion ability of malignant and normal cells.
(§4) Invasion assay was performed using BioCoat cell culture inserts (BioCoat 8.0µm PET Membrane 24 Well Permeable Supports, Corning). Filters were coated with 100 µl of 300 µg/ml Matrigel dissolved in coating buffer (0.01 M Tris pH 8.0, 0.7% NaCl) (Becton-Dickinson Sciences). DMEM (Dulbecco's Modified Eagle's Medium) containing 5% FBS was added to the lower chambers. Cells were pre-treated with heparanase inhibitors for 24 h, detached and added to the upper chambers in media containing the inhibitors. Cells were allowed to invade for 24 h at 37°C in a CO2 incubator and then unmigrated cells were removed from the upper chamber with a cotton swab. The invading cells were fixed, stained with 0.1% crystal violet for 10 min at room temperature, photographed and counted under inverted microscope.
(§5) Test compounds were analyzed at fixed concentration (2.5 µM) for several fields, in duplicates. Activity of test compounds was compared to the reference compound. Activity of most interesting compound was confirmed in a second cell invasion assay. Data were expressed as the percent invasion with respect to cell migration through uncoated insert membrane (see Table 3 below)
(§6) Table 3. […] In Invasion assay, data were expressed as the percent invasion (range) with respect to cell migration through uncoated insert membrane. In Adhesion assay, data were expressed as the percent of adhesion with respect to the control (100%). • Legend • ++: 50-90% • + : < 50% • - : Not Active

Test [5] concerns U87MG (human glioblastoma astrocytoma). In words: Matrigel cell invasion assay, U87MG. It is filed as cell-based. Also on record: key to Invasion Assay Inhibition U87MG: ++: 50-90%; +: < 50%; -: Not Active. How it is done:
as §3, §4, §5, §6

The test system of test [6] is U2OS (human osteosarcoma). The test is described as follows: Matrigel cell invasion assay, U2OS. It is filed as cell-based. Also on record: key to Invasion Assay Inhibition U2OS: ++: 50-90%; +: < 50%; -: Not Active. The method, then: as §3, §4, §5, §6
Test [7] has as its system HT1080 (human fibrosarcoma). The test is described as follows: Cell adhesion assay on matrigel coated wells, HT1080. As to conditions: percent of adhesion with respect to the control (100%). It counts as cell-based. How it is done: (§7) Cell surface, non-integrin molecules such as heparan sulfate proteoglycans (HSPGs) may be involved in the regulation of early adhesive stages of cell-ECM interactions. A cell adhesion assay has been employed to determine if the newly designed heparanase inhibitors were able to interfere with adhesion properties of cancer cells.
(§8) HT1080 (human fibrosarcoma) and U87MG (human glioblastoma astrocytoma) cells were treated for 18-20 h with test compounds in complete medium supplemented with 10% FCS. Then cells were collected, washed in complete medium, and added to matrigel coated wells in triplicate, at previously identified optimal seeding density, and incubated at 37 °C in complete medium for times ranging from 15 minutes to 4h, according to the cell line. After incubation, the wells were washed three times with serum-free medium and the remaining firmly attached cells were stained with crystal-violet 0.1%. Optical density was measured at 560 nm by Victor 3 (Perkin-Elmer) plate analyzer. Each experiment was repeated three times.
as §6

In test [8] the test system is U87MG (human glioblastoma astrocytoma). In words: Cell adhesion assay on matrigel coated wells, U87MG. It counts as cell-based. As to conditions: percent of adhesion with respect to the control (100%). The method, then:
as §7, §8, §6

Another test concerns the target T1, heparanase (Homo sapiens, UniProt Q9Y251).
T1 sequence (Q9Y251 158-543 limits assumed): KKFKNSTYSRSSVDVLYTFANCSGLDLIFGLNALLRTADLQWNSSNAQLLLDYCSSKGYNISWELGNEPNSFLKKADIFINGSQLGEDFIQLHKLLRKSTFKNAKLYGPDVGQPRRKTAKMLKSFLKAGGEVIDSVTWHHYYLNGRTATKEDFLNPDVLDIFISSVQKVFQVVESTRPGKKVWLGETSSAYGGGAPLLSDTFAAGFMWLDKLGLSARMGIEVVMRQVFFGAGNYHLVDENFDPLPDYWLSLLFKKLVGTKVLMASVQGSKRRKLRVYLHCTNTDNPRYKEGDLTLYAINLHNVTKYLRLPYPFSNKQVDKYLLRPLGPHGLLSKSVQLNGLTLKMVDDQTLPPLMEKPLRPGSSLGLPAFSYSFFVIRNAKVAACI
T1 sequence (Q9Y251 36-109 limits assumed): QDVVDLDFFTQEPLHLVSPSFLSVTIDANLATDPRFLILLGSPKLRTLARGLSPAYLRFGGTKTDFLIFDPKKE
In words: AGA*IA assay: colorimetric fondaparinux cleavage assay for heparanase inhibition (WST-1). The settings on record: 2.5 nM heparanase, 100 µM fondaparinux, pH 5.0, 3 h at 37°C; class symbols. It is filed as biochemical. How it is done:
All compounds were tested in a simple, accurate and robust microplate assay based on the cleavage of the synthetic heparin fragment, the pentasaccharide Fondaparinux (AGA*IA). This assay was originally developed by Hammond and coworkers [Hammond E, Li CP, Ferro V. Development of a colorimetric assay for heparanase activity suitable for kinetic analysis and inhibitor screening. Anal. Biochem. 396(1), 112-116 (2010)], where Fondaparinux corresponds to the methyl glycoside of the antithrombin III (ATIII)-activating pentasaccharide sequence of heparin. Fondaparinux is cleaved by heparanase to generate a reducing disaccharide, which can be quantitatively measured via a colorimetric or a fluorescence assay, the last by the fluorescent sensor polymer-H [Schiemann S, Lühn S, Alban S. Development of both colorimetric and fluorescence heparinase activity assays using fondaparinux as substrate. Anal. Biochem. 427(1), 82-89 (2012)].
The assay measures the appearance of the disaccharide product of heparanase-catalyzed fondaparinux cleavage colorimetrically using the tetrazolium salt WST-1. Assay was essentially performed as described with minor modifications. Briefly, NUNC ELISA 96-well plates were pre-treated with a solution of 4% BSA (bovin serum albumin) in phosphate-buffered saline containing 0.05% Tween 20 (PBST), for 2 h at 37°C, then washed three times with PBST, dried by tapping on paper towel and stored at -20°C. Before use, once again, the plates were washed with PBST.
Assay was carried out with 100 µl/well of assay solution containing 40 mM sodium acetate buffer (pH 5.0), 100 µM fondaparinux, 2.5 nM heparanase and serial dilutions of test compounds (tested in triplicate). Plates were sealed with adhesive tape and incubated, in the dark, for 3 h at 37°C, followed by development with 1.69 mM of the tetrazolium salt WST-1 solution in 0.1 M NaOH, for 1 h at 60°C. Then, the absorbance at 560 nm was measured through a microplate reader (Victor 3, Perkin Elmer).
Finally, the measurements were corrected by subtracting both the reagent background and the inner absorbance value of test compound.
Background: Tetrazolium dyes change colour on reduction, which living cells bring about.

Each structure is given as a SMILES string. pIC50: −log10 of the molar value.

What is called inhibition is how much of the control response was suppressed. As for `Cc1ccc(C(=O)Nc2ccc(S(=O)(=O)O)c3cc(S(=O)(=O)O)cc(S(=O)(=O)O)c23)cc1NC(=O)c1cccc(NC(=O)Nc2cccc(C(=O)Nc3cc(C(=O)Nc4ccc(S(=O)(=O)O)c5cc(S(=O)(=O)O)cc(S(=O)(=O)O)c45)ccc3C)c2)c1` [Suramin, reference compound], the EC50 in [1], in test [2] and in test [3] was more than 10 µM each time. Moreover, the inhibition at 10 µM in test [4] (HT-1080, HT1080, reference compound at 10 µM) was less than 50%. For the same compound, the “Invasion Assay Inhibition U87MG” value in test [5] (reference compound at 10 µM) is reported as “-”. Further, in test [6] (reference compound at 10 µM), the “Invasion Assay Inhibition U2OS” value is on record as “-”. Also, the “Adhesion Assay (%) HT1080” value in test [7] (HT1080, reference compound at 10 µM) turned out to be 72.98%. Further, the “Adhesion Assay (%) U87MG” value in test [8] (reference compound at 10 µM) came out at 100%.
Usually pIC50 stands for the negative decadic logarithm of the IC50, by convention in mol/L. `C[C@H](NC(=O)Cc1ccc2oc(-c3ccc(NC(=O)Nc4ccc(-c5nc6cc(CC(=O)N[C@@H](C)C(=O)O)ccc6o5)cc4F)c(F)c3)nc2c1)C(=O)O` [Compound 27, (2S,2'S)-2,2'-((2,2'-(((Carbonylbis(azanediyl))bis(3-fluoro-4,1-phenylene))bis(benzo[d]oxazole-2,5-diyl))bis(acetyl))bis(azanediyl))dipropionic acid]: the negative logarithm of the IC50 (pIC50) against heparanase is 6.31 to 7.30. For the same compound, the EC50 in test [1], in [2] and in test [3] was more than 10 µM in each case. For the same compound, the inhibition at 2.5 µM in test [4] (HT-1080, HT1080, test compound at 2.5 µM, 24 h pre-treatment, 24 h invasion) is less than 50%; in test [5] (Homo sapiens, U-87 MG, test compound at 2.5 µM, 24 h pre-treatment, 24 h invasion), 50 to 90%; in [6] (Homo sapiens, test compound at 2.5 µM, 24 h pre-treatment, 24 h invasion), less than 50%. For the same compound, the “Adhesion Assay (%) HT1080” value in test [7] (HT1080, test compound at 2.5 µM) is on record as 90.94%. In addition, the “Adhesion Assay (%) U87MG” value in [8] (test compound at 2.5 µM) was 61.10%.
